Laboratory results as given in the OligoGym collection.
Values joined by “and” are separate entries in the source; they are usually repeats but may differ in a detail not shown here. Identical values can stand only once. After the bases stand the sugars from the 5' end (letter, count) and the backbone: PS all phosphorothioate, else s phosphorothioate and o phosphodiester by linkage. Methylation of C is not given here. e = 2'-O-(2-methoxyethyl) (MOE); k = constrained ethyl (cEt); d = 2'-deoxy (DNA); m = 2'-O-methyl

Target: HSD17B13
Details: ASO, HepaRG

Row | Sequence | target mRNA inhibition (1 µM) | also measured
1 | TAGTAATCACAAGTAA (sugars k3 d9 k3 e1, PS) | 65% | –
2 | TGCTAGTAATTGCATC (sugars k3 d10 k3, PS) | 17% | –
3 | AAACAAGAGGATAGTC (sugars kkkdddddddkdkkke, PS) | 45% | –
4 | CCTATATACATCCAAG (sugars kkdddddddddkekek, PS) | 61% | –
5 | GGATAGTGAACATACA (sugars k3 d10 k3, PS) | 62% | –
6 | ATACATTAGCAAGCTA (sugars k3 d10 k3, PS) | 69% | –
7 | GTAATGAGAACAATCT (sugars k3 d10 k3, PS) | 48% | –
8 | GTAGAATTGTCTGTTA (sugars k3 d10 k3, PS) | 51% | –
9 | CAATTTACTTTCAGCC (sugars k3 d10 k3, PS) | 71% | target mRNA inhibition (0.02 µM): 0%; target mRNA inhibition (0.078 µM): 18%; target mRNA inhibition (0.313 µM): 37%; target mRNA inhibition (1.25 µM): 76%; target mRNA inhibition (5 µM): 86%
10 | GTCCAGAATAGAGTTG (sugars k3 d10 k3, PS) | 60% | –
11 | GCTCCATAATAATAGC (sugars k3 d10 k3, PS) | 21% | –
12 | CTACUTGAACAGTCTT (sugars k3 d1 m1 d8 k3, PS) | 79% | target mRNA inhibition (0.02 µM): 9%; target mRNA inhibition (0.078 µM): 22%; target mRNA inhibition (0.313 µM): 46%; target mRNA inhibition (1.25 µM): 77%; target mRNA inhibition (5 µM): 76%
13 | CTTCACCAACGACTCC (sugars k3 d10 k3, PS) | 8% | –
14 | AAGTTAGCCCCCAGGA (sugars k3 d9 k3 e1, PS) | 23% | –
15 | GTCCAGGTTGAGATAA (sugars k3 d1 m1 d8 k3, PS) | 68% | –
16 | GATAATATGTGACTTG (sugars k3 d10 k3, PS) | 68% | –
17 | TGCTTACGACAGGTCA (sugars k3 d10 k3, PS) | 81% | target mRNA inhibition (0.02 µM): 0%; target mRNA inhibition (0.078 µM): 21%; target mRNA inhibition (0.313 µM): 57%; target mRNA inhibition (1.25 µM): 70%; target mRNA inhibition (5 µM): 90%
18 | CAAGAGTTCTTGCAGA (sugars k3 d10 k3, PS) | 17% | –
19 | AGGCUAGGGAAATCTT (sugars k3 d1 m1 d8 k3, PS) | 41% | –
20 | GATCTCTTAGCTGTGC (sugars k3 d10 k3, PS) | 64% | –
21 | CTAGTGGTAATGGTAA (sugars k3 d10 k3, PS) | 62% | –
22 | TGCTGCTAGTGCCAAA (sugars kkdddddddddkekek, PS) | 40% | –
23 | CAAAAGACTTTGAGAC (sugars k3 d9 k3 e1, PS) | 13% | –
24 | GTAAGCTGAGAGTTCT (sugars k3 d10 k3, PS) | 49% | –
25 | CAACGCAACAGTTTAG (sugars k3 d10 k3, PS) | 52% | –

Row | Sequence | target mRNA inhibition (1 µM) | also measured
26 | TTTTCGGCACTCAGCT (sugars k3 d10 k3, PS) | 13% | –
27 | AGAATAGAGTTGCACC (sugars kkdddddddddkekek, PS) | 59% | –
28 | GTCGGATTATTTTTTC (sugars k3 d10 k3, PS) | 61% | –
29 | TATCAGACTTCTTACG (sugars k3 d1 m1 d8 k3, PS) | 27% | –
30 | CACTTTGGTATTGTTG (sugars k3 d10 k3, PS) | 53% | –
31 | ATAGAACTAGAACTCC (sugars k3 d10 k3, PS) | 22% | –
32 | AAGTTTGTTAGAGTGC (sugars k3 d10 k3, PS) | 74% | –
33 | CAGATTGGAATGCTAC (sugars k3 d9 k3 e1, PS) | 61% | –
34 | CTGCTGCTAGTGCCAA (sugars kkdddddddddkekek, PS) | 44% | –
35 | CCAGTACAGTTCCTTT (sugars k3 d10 k3, PS) | 66% | target mRNA inhibition (0.02 µM): 38%; target mRNA inhibition (0.078 µM): 37%; target mRNA inhibition (0.313 µM): 53%; target mRNA inhibition (1.25 µM): 75%; target mRNA inhibition (5 µM): 89%
36 | ACAGGTAATTAATCTT (sugars k3 d10 k3, PS) | 39% | –
37 | TCTTATGTAATAGCCA (sugars kkdddddddddkekek, PS) | 65% | –
38 | TCTTAAACCTTCCCTG (sugars k3 d9 k3 e1, PS) | 38% | –
39 | TTGACTAAGGAGCTAG (sugars k3 d10 k3, PS) | 20% | –
40 | ACCTTATTAATATCCC (sugars k3 d10 k3, PS) | 71% and 50% | target mRNA inhibition (0.02 µM): 0%; target mRNA inhibition (0.078 µM): 0%; target mRNA inhibition (0.313 µM): 0%; target mRNA inhibition (1.25 µM): 72%; target mRNA inhibition (5 µM): 90%
41 | CTGCATTAATGCCACC (sugars kkdddddddddkekek, PS) | 6% | –
42 | ATATCCAGTAGGTGTG (sugars k3 d10 k3, PS) | 55% | –
43 | TCACCTGATTTAGAGA (sugars k3 d10 k3, PS) | 13% | –
44 | TGGGAGTCGGATTATT (sugars k3 d10 k3, PS) | 44% | –
45 | CGGTCACCTTTCATAA (sugars kkdddddddddkekek, PS) | 70% | –
46 | GTTAGAATAGTCTTCA (sugars kkdddddddddkekek, PS) | 45% | –
47 | TGGCTTAATGTTCAGT (sugars k3 d10 k3, PS) | 50% | –
48 | CAGATTGGAATGCTAC (sugars k3 d10 k3, PS) | 74% | target mRNA inhibition (0.02 µM): 7%; target mRNA inhibition (0.078 µM): 12%; target mRNA inhibition (0.313 µM): 36%; target mRNA inhibition (1.25 µM): 73%; target mRNA inhibition (5 µM): 94%
49 | CAGGGTGGTAACGGTG (sugars k3 d9 k3 e1, PS) | 39% | –
50 | TAAGTATTCCATCTAT (sugars k3 d10 k3, PS) | 31% | –

Row | Sequence | target mRNA inhibition (1 µM) | also measured
51 | AGGCTTATGAAGTTAG (sugars k3 d10 k3, PS) | 57% | –
52 | GATAGTGAACATACAT (sugars k3 d10 k3, PS) | 54% | –
53 | ATTGTCTAAACATCTC (sugars k3 d10 k3, PS) | 84% | target mRNA inhibition (0.02 µM): 18%; target mRNA inhibition (0.078 µM): 33%; target mRNA inhibition (0.313 µM): 58%; target mRNA inhibition (1.25 µM): 83%; target mRNA inhibition (5 µM): 94%
54 | TATCAGACTTCTTACG (sugars k3 d10 k3, PS) | 59% | –
55 | CCACACTAATGAATCA (sugars k3 d10 k3, PS) | 43% | –
56 | AGAGAGTAATCAGTTT (sugars k3 d1 m1 d8 k3, PS) | 25% | –
57 | TAGAATTGTCTGTTAG (sugars k3 d10 k3, PS) | 9% | –
58 | GAGTAATCAGTTTTCC (sugars k3 d10 k3, PS) | 65% | –
59 | ATCATACCACATACCC (sugars k3 d10 k3, PS) | 45% | –
60 | AACTGAAGGTCTGAGC (sugars k3 d10 k3, PS) | 55% | –
61 | ATGGAAACATGCTTGG (sugars k3 d10 k3, PS) | 48% | –
62 | CCAGGTTGAGATAAAG (sugars kkdddddddddkekek, PS) | 55% | –
63 | GTGAAATCTTGTGTAA (sugars k3 d10 k3, PS) | 44% | –
64 | TGAGATTACCCCTGGC (sugars k3 d10 k3, PS) | 53% | –
65 | AGTCTGCCTGCCTATT (sugars k3 d10 k3, PS) | 47% | –
66 | TTAAAATAGAGTCGGT (sugars k3 d9 k3 e1, PS) | 71% | –
67 | ATTCATAAGTAGTCTG (sugars k3 d10 k3, PS) | 35% | –
68 | GGTAAGGAATCCCTTC (sugars k3 d10 k3, PS) | 43% | –
69 | CATAATAATAGCTCTA (sugars kkdddddddddkekek, PS) | 13% | –
70 | ATCGGCTGGATATACT (sugars k3 d10 k3, PS) | 10% | –
71 | AGCCAGTACAGTTCCT (sugars k3 d1 m1 d8 k3, PS) | 65% | –
72 | TATGTCCAGGTTGAGA (sugars k3 d10 k3, PS) | 64% | –
73 | AGTTAGAATAGTCTTC (sugars k3 d10 k3, PS) | 67% | –
74 | CTAAACCCTGGAGCAG (sugars k3 d10 k3, PS) | 42% | –
75 | TTAGTCTTGATGTAGT (sugars k3 d10 k3, PS) | 61% | –

Row | Sequence | target mRNA inhibition (1 µM) | also measured
76 | CCATAATCTTGTGCTT (sugars k3 d10 k3, PS) | 32% | –
77 | GGAGTGCATCTTAAGA (sugars k3 d9 k3 e1, PS) | 40% | –
78 | TAGTGGGAGTCGGATT (sugars k3 d10 k3, PS) | 54% | –
79 | TAAGATACCCAGGTTG (sugars k3 d1 m1 d8 k3, PS) | 11% | –
80 | ATAGGAGAGTCTTTCA (sugars k3 d10 k3, PS) | 77% | –
81 | TTATTAGAAGTCAGCC (sugars k3 d10 k3, PS) | 36% | –
82 | AATAGTCTTCAGCAAA (sugars k3 d10 k3, PS) | 48% | –
83 | TAACTACATGACCTGG (sugars k3 d10 k3, PS) | 37% | –
84 | GATATTCTGTGGCATG (sugars kkdddddddddkekek, PS) | 52% | –
85 | GTTATCAGAAACTTAT (sugars k3 d10 k3, PS) | 31% | –
86 | GTATTCCATCTATCAG (sugars k3 d10 k3, PS) | 52% | –
87 | TGAACAGTCTTAAACC (sugars k3 d10 k3, PS) | 56% | –
88 | TATGTGATTGAGTTCT (sugars k3 d9 k3 e1, PS) | 43% | –
89 | TTACCAGAGCATTCAT (sugars k3 d10 k3, PS) | 50% | –
90 | GCTGCCTGCTGAAACT (sugars k3 d10 k3, PS) | 38% | –
91 | ACCAAACTTCCAGCAG (sugars kkdddddddddkekek, PS) | 32% | –
92 | GAGACATGAGGTTTTG (sugars kkdddddddddkekek, PS) | 49% | –
93 | CTGTGACGATGTGGCC (sugars k3 d10 k3, PS) | 28% | –
94 | TAAAATAGAGTCGGTC (sugars k3 d1 m1 d8 k3, PS) | 52% | –
95 | GCTGCTAGTGCCAAAC (sugars kkdddddddddkekek, PS) | 62% | –
96 | ATTGGAATGCTACTTG (sugars k3 d10 k3, PS) | 53% | –
97 | TGCTGCATTAATGCCA (sugars k3 d1 m1 d8 k3, PS) | 32% | –
